From US11505574B2, “Modulation of P53 for the treatment of cancer” (THE REGENTS OF THE UNIVERSITY OF CALIFORNIA, priority 2016, dated 2022)

What was measured:
[1] = tested on: p53; test: Western blot for p53 and downstream targets in RKO cells treated with peptides; type: cell-based, human; conditions: RKO cells
[2] = tested on: p53; test: Western blot for p53 and downstream targets in MCF7 cells treated with peptides; type: cell-based, human; conditions: MCF7 cells
[3] = tested on: p53 (mutant); test: Western blot for mutant p53 in miaPaCa2 cells treated with Pen-Pep8; type: cell-based; conditions: 2.5 μM for 30 minutes then 6.25 ng/mL doxorubicin 18 hours (FIG. 37C)
Procedure: For the experiments shown in FIG. 37C, 2×10^5 miaPaCa2 cells per well were plated the day before in a 6-well plate. The following day, the cells were treated with 2.5 μM Pen-Ctrl (SEQ ID NO:10) or Pen-Pep8 (SEP ID NO:50) for 30 minutes then treated with 6.25 ng/mL doxorubicin for 18 hours. The following the day, the cells were harvested with 350 μL 1×SDS-lysis buffer and 20 μL of lysate was loaded per well onto a 10% SDS-PAGE gel followed by Western blot for total eIF4E, p-eIF4E (Ser209), p53 (mutant), and actin.

[4] = tested on: RKO tumor xenograft; test: RKO tumor xenograft model in nude mice; type: in vivo
Procedure: 6-week-old female nude mice were used for the xenograft study (FIG. 35A). 1×10^6 RKO cells in a 1:1 mixture of matrigel:DMEM (serum-free) were injected into the right flank of the nude mice. After tumors had grown to a size of about 100 mm^3, treatment with either Pen-Ctrl or Pen-Pep8 (5 μM in 50 μL sterile PBS) was administered by intratumoral injection every 2 days for 2 weeks. After treatment, the animals were sacrificed and tumors were excised, measured, and weighed followed by being flash frozen (n=6 for each group). Xenograft volume over the course of treatment and final tumor weight after the animals were sacrificed are shown in FIGS. 35B and 35C, respectively. Furthermore, pieces of the frozen xenografts were cut using a sterile scalpel and then the tumor tissue was lysed and lysate was run on a 10% SDS-PAGE gel followed by Western blotting for Puma, p53, and actin.

[5] = tested on: MCF7 tumor spheres; test: MCF7 tumor sphere assay; type: cell-based, human; conditions: MCF7 cells; 5 μM; 6.25 ng/mL doxorubicin; 7 days (FIGS. 34E, 34F)
Procedure: For the experiments shown in FIG. 34E, MCF7 cells were plated at a density of 20,000 cells per well using 2 mL Mammocult media in 6-well ultra-low adherent plates. The following day, cells were treated with Pen-Ctrl or Pen-Pep8 at a concentration of 5 μM. Peptides were added to each well for 20 minutes followed by 6.25 ng/mL doxorubicin. Cells were grown for 7 days and then the number of tumor spheres that were larger than 50 μm in diameter were counted (i.e., 20 10× photos were randomly taken and tumor spheres counted from the digital photos). For the graph shown in FIG. 34F, statistical analysis was performed using the student's t-test (n=3; *p≤0.05).
For the experiments shown in FIG. 36C, MCF7 cells were plated at a density of 20,000 cells per well using 2 mL Mammocult media in 6-well ultra-low adherent plates. The following day, cells were treated with 150 nM Cyc-Ctrl or Cyc-Pep8 (SEQ ID NO:5). 150 nM Cyc-Ctr/Pep8 was incubated in 100 μL serum-free DMEM with 3 μg PEP1 for 25 minutes before being added to the cells. After 20 minutes, 3.125 ng/mL doxorubicin was added to the cells for 7 days. Cells were grown for 7 days and then tumor spheres were counted that were larger than 50 μm in diameter (i.e., 20 10× photos were randomly taken and tumor spheres were counted from the digital photos).

[6] = tested on: RKO cells; test: RKO cell colony formation assay (peptides); type: cell-based, human; conditions: 5 μM, 3.125 ng/mL doxorubicin 48 hours (FIG. 34D)
Procedure: For the experiments shown in FIG. 34D, RKO cells were seeded on a 6-well plate at a seed density of 2×10^3 cells per well. The following day the cells were treated with 5 μM Pen-Ctrl, 5 μM Pen-Pep23, or 5 μM Pen-Pep8. The following day, 3.125 ng/mL doxorubicin was added to the cells for 48 hours. Subsequently, the cell media was changed every 3 days until colonies were visible. The cells were fixed and stained with crystal violet.

Sequence: RQIKIWFQNRRMKWKKYPYAASPA [Pen-Pep8, Penetratin fused to Pep8]
- sensitization to low-dose etoposide (p53 Western blot) ([1]; 1.5 μM for 20 minutes then 0.125 ng/mL etoposide 18 hours (FIG. 34I)): also to low-dose etoposide
- sensitization to low-dose doxorubicin (p53 Western blot) ([1]; 1.5 μM for 20 minutes then 6.25 ng/mL doxorubicin 18 hours (FIG. 34I)): sensitized to low-dose doxorubicin
- p53 expression with low dose doxorubicin (Western blot) ([1]; 2.5 μM for 20 minutes then 6.25 ng/mL doxorubicin 18 hours (FIG. 34A)): robust p53 expression
- p53 expression (Western blot) ([1]; 2.5 μM, 18 hours (FIG. 32B)): induced p53 expression
- p53 expression with low dose doxorubicin (Western blot) ([2]; 2.5 μM for 20 minutes then 6.25 ng/mL doxorubicin 18 hours (FIG. 34B)): robust p53 expression
- p53 expression (Western blot) ([2]; 2.5 μM, 18 hours (FIG. 32C)): induced p53 expression
- p53 protein levels (Western blot) ([2]; 2.5 μM, 18 hours (FIG. 37B)): increased p53 protein levels
- mutant p53 expression (Western blot) [3]: decreased mutant p53 expression
- RKO tumor cell growth in a xenograft model (tumor volume, tumor weight) ([4]; female nude mice, 5 μM in 50 μL PBS, intratumoral injection every 2 days for 2 weeks, versus Pen-Ctrl (FIGS. 35A-35C)): inhibited RKO tumor cell growth
- p53 and Puma protein expression in xenograft tumors (Western blot) ([4]; lysate from RKO xenograft tumors after treatment, versus Pen-Ctrl (FIG. 35D)): increased p53 protein expression, as well as its target, Puma
- number of tumor spheres larger than 50 μm in diameter, sensitization to low dose doxorubicin [5]: sensitized cells to low dose doxorubicin
- colony formation, sensitization to low-dose doxorubicin [6]: sensitized MCF7 and RKO cells to low-dose doxorubicin
